In article PMC8448983 (European journal of medicinal chemistry, 2021):

Key:
[1] = molecular target: T1, human A2B adenosine receptor (Homo sapiens, UniProt P29275); details: read-out: Ki, A2B AR; USEF; HEK-A2B membranes; 25 nM [3H]-DPCPX
T1 sequence (P29275 1-332): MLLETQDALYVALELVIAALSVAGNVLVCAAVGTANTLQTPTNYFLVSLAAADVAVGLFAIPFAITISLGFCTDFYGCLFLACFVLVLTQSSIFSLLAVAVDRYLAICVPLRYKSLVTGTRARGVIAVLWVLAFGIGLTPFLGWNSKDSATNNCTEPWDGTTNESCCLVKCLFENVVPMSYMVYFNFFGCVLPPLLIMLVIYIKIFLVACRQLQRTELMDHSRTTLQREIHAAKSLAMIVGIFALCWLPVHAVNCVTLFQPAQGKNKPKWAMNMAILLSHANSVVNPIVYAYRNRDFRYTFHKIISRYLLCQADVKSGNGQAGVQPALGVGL

human blood platelets [2] = assay: ADP-induced platelet aggregation in platelet-rich plasma; format: cell-based; details: 10 μM ADP, mean ± SD, n = 6–9
human blood platelets [3] = assay: Aggregation of blood platelets in whole blood; details: for effect on ADP-induced platelet aggregation in whole blood: ADP, 10, 30, 50 μM compound, n = 13; for effect on arachidonic acid-induced platelet aggregation in whole blood: data not shown; for effect on collagen-induced platelet aggregation in whole blood: collagen 1 μg/mL
[4] = molecular target: T2, human A3 adenosine receptor (Homo sapiens, UniProt P0DMS8); details: read-out: Ki, A3 AR; USEF; HeLa-A3 membranes; 10 nM [3H]-NECA
T2 sequence (P0DMS8 1-318): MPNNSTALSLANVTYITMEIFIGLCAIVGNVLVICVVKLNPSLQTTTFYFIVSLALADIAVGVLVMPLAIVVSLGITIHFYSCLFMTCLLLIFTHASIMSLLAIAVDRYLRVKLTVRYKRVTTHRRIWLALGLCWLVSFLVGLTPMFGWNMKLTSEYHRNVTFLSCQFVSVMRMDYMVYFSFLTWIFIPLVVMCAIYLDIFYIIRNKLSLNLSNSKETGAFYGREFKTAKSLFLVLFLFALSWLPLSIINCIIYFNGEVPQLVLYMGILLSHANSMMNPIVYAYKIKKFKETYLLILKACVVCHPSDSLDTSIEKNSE

human blood platelets [5] = assay: Formation of thrombus on collagen in flow conditions; format: cell-based; details: whole blood perfused over collagen; 50 μM compound; n = 9
[6] = molecular target: T3, human A2A adenosine receptor (Homo sapiens, UniProt P29274); details: 50 μM compound; Fig. 1
T3 sequence (P29274 whole entry): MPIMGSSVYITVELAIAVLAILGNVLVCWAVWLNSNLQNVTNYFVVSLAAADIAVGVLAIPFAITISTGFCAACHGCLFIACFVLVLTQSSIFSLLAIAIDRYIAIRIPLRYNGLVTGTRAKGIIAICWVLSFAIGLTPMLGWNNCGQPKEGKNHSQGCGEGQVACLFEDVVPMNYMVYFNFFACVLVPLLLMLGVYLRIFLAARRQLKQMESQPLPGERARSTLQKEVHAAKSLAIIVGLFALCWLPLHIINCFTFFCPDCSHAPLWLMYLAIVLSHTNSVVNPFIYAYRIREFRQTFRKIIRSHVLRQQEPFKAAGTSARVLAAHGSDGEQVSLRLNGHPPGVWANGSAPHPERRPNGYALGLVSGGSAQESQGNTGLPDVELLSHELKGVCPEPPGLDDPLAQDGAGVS

[7] = molecular target: T4, human A1 adenosine receptor (Homo sapiens, UniProt P30542); assay: biochemical
T4 sequence (P30542 1-326): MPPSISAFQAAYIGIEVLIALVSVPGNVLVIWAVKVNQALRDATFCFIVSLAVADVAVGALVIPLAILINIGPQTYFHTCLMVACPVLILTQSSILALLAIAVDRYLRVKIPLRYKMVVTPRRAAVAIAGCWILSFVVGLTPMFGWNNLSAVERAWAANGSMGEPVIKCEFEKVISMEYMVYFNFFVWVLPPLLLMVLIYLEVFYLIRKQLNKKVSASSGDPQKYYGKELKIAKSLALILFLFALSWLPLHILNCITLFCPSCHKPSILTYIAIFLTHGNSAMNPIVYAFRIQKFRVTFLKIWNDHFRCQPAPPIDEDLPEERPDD

[8] = molecular target: T3, human A2A adenosine receptor; assay: biochemical
A3 receptor = details: read-out: experimental Ki, A3 AR; ref PubChem CID 9958472; cited from earlier work

Row | radioligand displacement at A2A receptor [6] | Ki [7] | IC50 [8] | Compound | Ki [1] | area under the aggregation curve, ADP-induced platelet aggregation (human blood platelets [2]; 10 μM compound) | area under the aggregation curve, ADP-induced platelet aggregation (human blood platelets [2]; 50 μM compound) | effect on ADP-induced platelet aggregation in whole blood (human blood platelets [3]) | effect on arachidonic acid-induced platelet aggregation in whole blood (human blood platelets [3]) | effect on collagen-induced platelet aggregation in whole blood (human blood platelets [3]) | Ki [4] | effect on thrombus formation on collagen under flow (human blood platelets [5]) | Ki (A3 receptor)
1 | – | – | – | 5′-ethylcarbamoyl-N^6-(3-phenylpropyl)adenosine [Compound 18] | 1380 nM | 630.0 ± 80.3 arbitrary units | 336.8 ± 108.5 arbitrary units | significantly inhibited | no effect | significantly inhibited | 4.5 nM | did not exert an inhibitory effect | –
2 | at least 50% | 3340 nM | 22000 ± 4400 nM | OC[C@H]1O[C@@H](n2cnc3c(NCCCc4ccccc4)nc(Cl)nc32)[C@H](O)[C@@H]1O [Compound 24, 6-N-(3-phenylpropyl)-2-chloroadenosine] | – | – | – | – | – | – | – | – | –
3 | at least 50% | – | – | OC[C@H]1O[C@@H](n2cnc3c(NCCCc4ccccc4)ncnc32)[C@H](O)[C@@H]1O [Compound 40, N^6-(3-phenylpropyl)adenosine] | – | – | – | significantly decreased | did not inhibit | did not inhibit | – | smaller than the thrombi in the untreated samples | –
4 | – | – | – | CNC(=O)[C@H]1O[C@@H](n2cnc3c(NCc4ccc(N)c(I)c4)ncnc32)[C@H](O)[C@@H]1O [I-AB-MECA] | – | – | – | – | – | – | – | – | 1.2 to 2.1 nM
